Experimental data published in PubChem BioAssay (NCI).
Where “and” joins values, the source holds several entries; their conditions need not be identical. Equal values may be shown once.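 Five concentrations, 48 hours, 96-well plates. At the GI50, growth is halved. The concentration for full growth arrest is given as TGI.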

What was measured:
Assay in all cases: inhibition of tumour cell growth, NCI panel, 48 h
A549 NSCLC = system: A549 NSCLC
SK-MEL-2 melanoma = system: SK-MEL-2 melanoma
NCI-H522 lung = system: NCI-H522 lung
NCI/ADR-RES ovarian = system: NCI/ADR-RES ovarian
T-47D breast = system: T-47D breast
OVCAR-3 ovarian = system: OVCAR-3 ovarian
RPMI-8226 leukemia = system: RPMI-8226 leukemia
786-0 renal = system: 786-0 renal
UO-31 renal = system: UO-31 renal
RXF 393 renal = system: RXF 393 renal
HT29 colon = system: HT29 colon
U251 CNS = system: U251 CNS
SK-MEL-5 melanoma = system: SK-MEL-5 melanoma
DU-145 prostate = system: DU-145 prostate
SNB-75 CNS = system: SNB-75 CNS
COLO 205 colon = system: COLO 205 colon
OVCAR-5 ovarian = system: OVCAR-5 ovarian
MDA-MB-231 breast = system: MDA-MB-231 breast
SR leukemia = system: SR leukemia
MDA-MB-435 = system: MDA-MB-435
OVCAR-4 ovarian = system: OVCAR-4 ovarian
K-562 leukemia = system: K-562 leukemia
SN12C renal = system: SN12C renal
HS 578T breast = system: HS 578T breast
UACC-257 melanoma = system: UACC-257 melanoma
HOP-92 NSCLC = system: HOP-92 NSCLC
OVCAR-8 ovarian = system: OVCAR-8 ovarian
NCI-H226 lung = system: NCI-H226 lung
A498 renal = system: A498 renal
CAKI-1 renal = system: CAKI-1 renal
SF-268 CNS = system: SF-268 CNS
MOLT-4 leukemia = system: MOLT-4 leukemia
IGROV1 ovarian = system: IGROV1 ovarian
HOP-62 NSCLC = system: HOP-62 NSCLC
PC-3 prostate = system: PC-3 prostate
SK-MEL-28 melanoma = system: SK-MEL-28 melanoma
ACHN renal = system: ACHN renal
SF-539 CNS = system: SF-539 CNS
KM12 colon = system: KM12 colon
MCF7 breast = system: MCF7 breast
HCT-15 colon = system: HCT-15 colon
TK-10 renal = system: TK-10 renal
EKVX NSCLC = system: EKVX NSCLC
UACC-62 melanoma = system: UACC-62 melanoma
HCC-2998 colon = system: HCC-2998 colon
MALME-3M melanoma = system: MALME-3M melanoma
SF-295 CNS = system: SF-295 CNS
SNB-19 CNS = system: SNB-19 CNS
M14 melanoma = system: M14 melanoma
HCT-116 colon = system: HCT-116 colon
NCI-H23 lung = system: NCI-H23 lung
SK-OV-3 ovarian = system: SK-OV-3 ovarian
LOX IMVI melanoma = system: LOX IMVI melanoma
NCI-H460 lung = system: NCI-H460 lung
MDA-N = system: MDA-N
CCRF-CEM leukemia = system: CCRF-CEM leukemia
HL-60(TB) leukemia = system: HL-60(TB) leukemia

In the case of `CN(C)c1ccc(/C=C/c2sc3ccccc3[n+]2C)cc1`, the TGI (A549 NSCLC) is reported as 16.7 µM and 17.2 µM, the TGI (SK-MEL-2 melanoma) is reported as 8.88 µM and 5.81 µM and the TGI (NCI-H522 lung) is reported as 11.1 µM and 7.29 µM. The TGI (NCI/ADR-RES ovarian) was greater than 100 µM, the TGI (T-47D breast) was 11.1 µM and 30.5 µM and the TGI (OVCAR-3 ovarian) was 3.82 µM and 2.86 µM. For the same molecule, the GI50 (RPMI-8226 leukemia) was 355 nM, the TGI (RPMI-8226 leukemia) was 0.719 µM and 4.19 µM and the TGI (786-0 renal) was 14.9 µM and > 100 µM. For the same molecule, the GI50 (UO-31 renal) was 2910 nM, the GI50 (RXF 393 renal) was 11 µM and 5.02 µM and the TGI (RXF 393 renal) was 27.8 µM and 36.3 µM. For the same molecule, the GI50 (HT29 colon) was 2710 nM and 1140 nM, the TGI (HT29 colon) was 11.8 µM and 12 µM and the GI50 (U251 CNS) was 479 nM and 121 nM. The TGI (U251 CNS) was 13.8 µM and > 100 µM, the TGI (SK-MEL-5 melanoma) was 3.93 µM and 3.27 µM and the GI50 (DU-145 prostate) was 2570 nM and 532 nM. The TGI (DU-145 prostate) was 13.2 µM and 11.2 µM, the GI50 (SNB-75 CNS) was 350 nM and 2300 nM and the GI50 (COLO 205 colon) was 185 nM. The TGI (COLO 205 colon) was 377 nM, the TGI (OVCAR-5 ovarian) was 26.6 µM and 61.5 µM and the GI50 (MDA-MB-231 breast) was 2 µM and 7.25 µM. For the same molecule, the TGI (MDA-MB-231 breast) was 10.1 µM and 33.8 µM, the GI50 (SR leukemia) was 2070 nM and 268 nM and the TGI (SR leukemia) was 8.87 µM and 2.6 µM. The TGI (MDA-MB-435) was 5.64 µM and 3.94 µM, the TGI (OVCAR-4 ovarian) was 10.2 µM and 9.3 µM and the GI50 (K-562 leukemia) was 515 nM and 856 nM. The TGI (K-562 leukemia) was 4.26 µM and 26.2 µM, the GI50 (SN12C renal) was 1710 nM and 645 nM and the TGI (SN12C renal) was 7.6 µM and 15.7 µM. The TGI (HS 578T breast) was 36.8 µM and 46.1 µM, the TGI (UACC-257 melanoma) was 7.85 µM and 11.9 µM and the TGI (HOP-92 NSCLC) was 5.34 µM and 8.69 µM. The GI50 (OVCAR-8 ovarian) was 95.5 nM and 387 nM, the TGI (OVCAR-8 ovarian) was 1.17 µM and 6.8 µM and the TGI (NCI-H226 lung) was 15.4 µM and 7.31 µM. The TGI (A498 renal) was 26.2 µM and 32.7 µM, the TGI (CAKI-1 renal) was 13.2 µM and 11.6 µM and the TGI (SF-268 CNS) was 17.5 µM and 23 µM. The TGI (MOLT-4 leukemia) was 957 nM and 1310 nM, the GI50 (IGROV1 ovarian) was 4290 nM and 1210 nM and the TGI (IGROV1 ovarian) was 19.7 µM and 15.3 µM. The GI50 (HOP-62 NSCLC) was 3.7 µM and 8.53 µM, the TGI (HOP-62 NSCLC) was 14.9 µM and > 100 µM and the TGI (PC-3 prostate) was 10.9 µM and 22.8 µM. For the same molecule, the TGI (SK-MEL-28 melanoma) was 15.7 µM and 6.34 µM, the TGI (ACHN renal) was 9.85 µM and 7.49 µM and the TGI (SF-539 CNS) was 9.91 µM and 17.8 µM. For the same molecule, the GI50 (KM12 colon) was 621 nM, the TGI (KM12 colon) was > 25.2 µM and 5.26 µM and the GI50 (MCF7 breast) was 3940 nM and 1460 nM. The TGI (MCF7 breast) was 17.6 µM and 7.41 µM, the TGI (HCT-15 colon) was 29.3 µM and 24.2 µM and the TGI (TK-10 renal) was 16 µM and 24.9 µM. The GI50 (EKVX NSCLC) was 9.19 µM and 2.31 µM, the TGI (EKVX NSCLC) was 31.9 µM and 19.8 µM and the GI50 (UACC-62 melanoma) was 3870 nM and 1480 nM. For the same molecule, the TGI (UACC-62 melanoma) was 17 µM and 5.87 µM, the GI50 (HCC-2998 colon) was 11.2 µM and 1.48 µM and the TGI (HCC-2998 colon) was 25.7 µM and 17.3 µM. The TGI (MALME-3M melanoma) was 12.1 µM and 6 µM, the TGI (SF-295 CNS) was 24.8 µM and 23.1 µM and the TGI (SNB-19 CNS) was 14 µM and > 100 µM. The GI50 (M14 melanoma) was 3660 nM and 427 nM, the TGI (M14 melanoma) was 16.2 µM and 3.29 µM and the TGI (HCT-116 colon) was 10.9 µM and > 100 µM. For the same molecule, the TGI (NCI-H23 lung) was 8.47 µM and 16.7 µM, the TGI (SK-OV-3 ovarian) was 17.1 µM and the GI50 (LOX IMVI melanoma) was 2340 nM and 1110 nM. For the same molecule, the TGI (LOX IMVI melanoma) was 6.87 µM and 3.34 µM, the GI50 (NCI-H460 lung) was 1880 nM and 744 nM and the TGI (NCI-H460 lung) was 5.28 µM and 7.85 µM. For the same molecule, the TGI (MDA-N) was 7.36 µM.
In the case of `O=C(Nc1ccc(S(=O)(=O)/N=c2\ncccn2C(=O)C(C(F)(F)F)C(F)(F)F)cc1)C(C(F)(F)F)C(F)(F)F`, the TGI (A549 NSCLC) is reported as greater than 100 µM, the TGI (SK-MEL-2 melanoma) is reported as greater than 100 µM and the TGI (NCI-H522 lung) is reported as greater than 100 µM. It also gave a TGI (NCI/ADR-RES ovarian) greater than 100 µM, a TGI (T-47D breast) greater than 100 µM and a TGI (OVCAR-3 ovarian) greater than 100 µM. The TGI (RPMI-8226 leukemia) was greater than 100 µM, the TGI (786-0 renal) was greater than 100 µM and the TGI (CCRF-CEM leukemia) was greater than 100 µM. It also gave a TGI (RXF 393 renal) greater than 100 µM, a TGI (HT29 colon) greater than 100 µM and a TGI (U251 CNS) greater than 100 µM. For the same molecule, the TGI (HL-60(TB) leukemia) was greater than 100 µM, the TGI (SK-MEL-5 melanoma) was greater than 100 µM and the TGI (DU-145 prostate) was greater than 100 µM. For the same molecule, the TGI (SNB-75 CNS) was greater than 100 µM, the TGI (COLO 205 colon) was greater than 100000 nM and the TGI (OVCAR-5 ovarian) was greater than 100 µM. It also gave a TGI (MDA-MB-231 breast) greater than 100 µM, a TGI (MDA-MB-435) greater than 100 µM and a TGI (OVCAR-4 ovarian) greater than 100 µM. For the same molecule, the TGI (K-562 leukemia) was greater than 100 µM, the TGI (SN12C renal) was greater than 100 µM and the TGI (HS 578T breast) was greater than 100 µM. The TGI (UACC-257 melanoma) was greater than 100 µM, the TGI (OVCAR-8 ovarian) was greater than 100 µM and the TGI (NCI-H226 lung) was greater than 100 µM. The TGI (A498 renal) was greater than 100 µM, the TGI (CAKI-1 renal) was 0.242 µM and the TGI (SF-268 CNS) was greater than 100 µM. For the same molecule, the TGI (MOLT-4 leukemia) was greater than 100000 nM, the TGI (IGROV1 ovarian) was greater than 100 µM and the TGI (HOP-62 NSCLC) was greater than 100 µM. It also gave a TGI (PC-3 prostate) greater than 100 µM, a TGI (SK-MEL-28 melanoma) greater than 100 µM and a TGI (ACHN renal) greater than 100 µM. The TGI (SF-539 CNS) was greater than 100 µM, the TGI (KM12 colon) was greater than 100 µM and the TGI (MCF7 breast) was greater than 100 µM. The TGI (HCT-15 colon) was greater than 100 µM, the TGI (TK-10 renal) was greater than 100 µM and the TGI (EKVX NSCLC) was greater than 100 µM. The TGI (UACC-62 melanoma) was greater than 100 µM, the TGI (HCC-2998 colon) was greater than 100 µM and the TGI (MALME-3M melanoma) was greater than 100 µM. The TGI (SF-295 CNS) was greater than 100 µM, the TGI (SNB-19 CNS) was greater than 100 µM and the TGI (M14 melanoma) was greater than 100 µM. It also gave a TGI (HCT-116 colon) greater than 100 µM, a TGI (NCI-H23 lung) greater than 100 µM and a TGI (SK-OV-3 ovarian) greater than 100 µM. It also gave a TGI (LOX IMVI melanoma) greater than 100 µM, a TGI (NCI-H460 lung) greater than 100 µM and a TGI (MDA-N) greater than 100 µM.
